Test results reported in US20070212717A1, “Method for Inhibiting Hepatitis C Virus Replication” (priority 2006, published 2007).

What was measured:
HCV RNA replicon = test: siRNA transfection of MP1 cells, HCV replicon luciferase assay; type: cell-based, hepatitis C virus; conditions: luciferase reporter or HCV RNA
Description: The “Luciferase assay system” from Promega is used to measure firefly luciferase (reporter) expression in the MP1 cell line in a 96-well format with the following protocol: • Prepare the Luciferase assay reagent by adding Luciferase assay buffer to the vial containing the lyophilized Luciferase assay substrate • Prepare 1× Luciferase cell culture lysis reagent by adding 4 volumes of water to 1 volume of 5× lysis buffer • Carefully remove the assay medium from cells • Rinse cells with 100 μl PBS buffer being careful to not dislodge attached cells • A black backing tape (Packard) is applied on bottom side of the 96-well black clear bottom plate. • Aliquot 30 μl/well of 1× Luciferase cell culture lysis reagent • Incubate at room temperature 10 minutes minimum • Aliquot 150 μl/well of Luciferase assay reagent and immediately measure the light produced on a TopCount NXT Instrument (Packard) (count time=2 s/well) […]
The negative control corresponds to a no match NS5B sequence (AAGAGAGUCAGUCAGCUAAUCAC) [SEQ ID NO. […] Moreover, RNA is also isolated (using the 96-well Qiagen extraction method as described in example 1) from a replicate plate of transfected cells such that real-time RT-PCR quantifying HCV replicon copy number (as described in example 1) and cellular transcript RNA levels are performed. […]

PIK4CA transcript = test: siRNA transfection of MP1 cells, real-time RT-PCR of PIK4CA transcript levels; type: cell-based, human
Description: In order to confirm that knockdown of PI4K inhibits HCV RNA replication, an independent method of suppressing the host gene using siRNA synthetic oligonucleotides, is implemented. […] The effect is specific in that transfection of non-specific oligonucleotides elicits no effect on HCV RNA replication. For the siRNA oligo transfection experiments, the MP1 cells (human hepatoma Huh-7 cell line harboring HCV RNA replicon with a luciferase reporter gene, as described above) are also used. Cells are maintained in DMEM High glucose (Wisent Inc.) supplemented with 10% fetal bovine serum (FBS; HyClone) containing neomycin (250 μg/ml) (Geneticin; Invitrogen). The assay medium lacks the neomycin. […]
The negative control corresponds to a no match NS5B sequence (AAGAGAGUCAGUCAGCUAAUCAC) [SEQ ID NO. […] Moreover, RNA is also isolated (using the 96-well Qiagen extraction method as described in example 1) from a replicate plate of transfected cells such that real-time RT-PCR quantifying HCV replicon copy number (as described in example 1) and cellular transcript RNA levels are performed. The method of quantifying host transcript RNA levels is similar to HCV RNA quantification except that the primers and the TaqMan probe are specific for the PIK4CA gene. […]
A standard curve for a relative quantification of PIK4CA transcript expression per μg total RNA is established for each transcript. […]

hepatitis C virus = conditions: two day clinical trial; cited from earlier work

Compound | inhibition of HCV replicon levels (HCV RNA replicon) | reduction of PIK4CA transcript levels (PIK4CA transcript; 10 nM siRNA, RT-PCR, relative to DharmaFECT only) | effect on PIK4CA transcript levels (PIK4CA transcript; controls (siRNA 10 nM; BILN 2061 100 nM)) | viral loads in patients infected with the hepatitis C virus (hepatitis C virus)
PIK4CA siRNA #9: siRNA (si Genome duplex, Dharmacon) with defined sequence # 9 targeting a segment on the host transcript (GCAGAAATTTGGCCTGTTT; listed as DNA, further chemistry not given here) | proportionally lower inhibition | ~25% |  | 
COc1ccc2c(O[C@@H]3C[C@H]4C(=O)N[C@]5(C(=O)O)C[C@H]5/C=C\CCCCC[C@H](NC(=O)OC5CCCC5)C(=O)N4C3)cc(-c3csc(NC(C)C)n3)nc2c1 [BILN2061] |  |  | no effect | effective in rapidly reducing viral loads
